Assay results as given in ChEMBL document CHEMBL4265895, “Novel inhibitors of As(III) S-adenosylmethionine methyltransferase (AS3MT) identified by virtual screening” (Bioorg Med Chem Lett, 2018).

Experiments:
[1] = target: T1, Arsenite methyltransferase (Homo sapiens, UniProt Q9HBK9); assay: Inhibition of human AS3MT using NaAsO2 as substrate preincubated for 30 minutes followed by substrate addition measured after 90 mins in presence of SAM
T1 sequence (Q9HBK9 whole entry): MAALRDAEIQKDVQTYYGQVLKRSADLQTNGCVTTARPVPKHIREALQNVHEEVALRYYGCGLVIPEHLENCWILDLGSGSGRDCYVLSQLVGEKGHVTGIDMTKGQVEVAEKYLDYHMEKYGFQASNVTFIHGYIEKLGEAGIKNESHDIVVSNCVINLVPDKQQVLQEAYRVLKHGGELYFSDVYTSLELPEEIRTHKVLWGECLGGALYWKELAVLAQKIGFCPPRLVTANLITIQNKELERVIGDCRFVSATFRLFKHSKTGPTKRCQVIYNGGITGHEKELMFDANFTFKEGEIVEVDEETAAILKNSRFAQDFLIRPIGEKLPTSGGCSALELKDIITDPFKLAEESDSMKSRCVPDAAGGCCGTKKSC

[2] = target: Histone-lysine N-methyltransferase, H3 lysine-79 specific (Homo sapiens, UniProt Q8TEK3); assay: Inhibition of full-length DOT1L (unknown origin) using HeLa oligonucleosome as substrate preincubated for 15 mins followed by substrate addition measured after 45 mins in presence of SAM by MTaseGlo assay
Sequence of Histone-lysine N-methyltransferase, H3 lysine-79 specific (Q8TEK3 whole entry): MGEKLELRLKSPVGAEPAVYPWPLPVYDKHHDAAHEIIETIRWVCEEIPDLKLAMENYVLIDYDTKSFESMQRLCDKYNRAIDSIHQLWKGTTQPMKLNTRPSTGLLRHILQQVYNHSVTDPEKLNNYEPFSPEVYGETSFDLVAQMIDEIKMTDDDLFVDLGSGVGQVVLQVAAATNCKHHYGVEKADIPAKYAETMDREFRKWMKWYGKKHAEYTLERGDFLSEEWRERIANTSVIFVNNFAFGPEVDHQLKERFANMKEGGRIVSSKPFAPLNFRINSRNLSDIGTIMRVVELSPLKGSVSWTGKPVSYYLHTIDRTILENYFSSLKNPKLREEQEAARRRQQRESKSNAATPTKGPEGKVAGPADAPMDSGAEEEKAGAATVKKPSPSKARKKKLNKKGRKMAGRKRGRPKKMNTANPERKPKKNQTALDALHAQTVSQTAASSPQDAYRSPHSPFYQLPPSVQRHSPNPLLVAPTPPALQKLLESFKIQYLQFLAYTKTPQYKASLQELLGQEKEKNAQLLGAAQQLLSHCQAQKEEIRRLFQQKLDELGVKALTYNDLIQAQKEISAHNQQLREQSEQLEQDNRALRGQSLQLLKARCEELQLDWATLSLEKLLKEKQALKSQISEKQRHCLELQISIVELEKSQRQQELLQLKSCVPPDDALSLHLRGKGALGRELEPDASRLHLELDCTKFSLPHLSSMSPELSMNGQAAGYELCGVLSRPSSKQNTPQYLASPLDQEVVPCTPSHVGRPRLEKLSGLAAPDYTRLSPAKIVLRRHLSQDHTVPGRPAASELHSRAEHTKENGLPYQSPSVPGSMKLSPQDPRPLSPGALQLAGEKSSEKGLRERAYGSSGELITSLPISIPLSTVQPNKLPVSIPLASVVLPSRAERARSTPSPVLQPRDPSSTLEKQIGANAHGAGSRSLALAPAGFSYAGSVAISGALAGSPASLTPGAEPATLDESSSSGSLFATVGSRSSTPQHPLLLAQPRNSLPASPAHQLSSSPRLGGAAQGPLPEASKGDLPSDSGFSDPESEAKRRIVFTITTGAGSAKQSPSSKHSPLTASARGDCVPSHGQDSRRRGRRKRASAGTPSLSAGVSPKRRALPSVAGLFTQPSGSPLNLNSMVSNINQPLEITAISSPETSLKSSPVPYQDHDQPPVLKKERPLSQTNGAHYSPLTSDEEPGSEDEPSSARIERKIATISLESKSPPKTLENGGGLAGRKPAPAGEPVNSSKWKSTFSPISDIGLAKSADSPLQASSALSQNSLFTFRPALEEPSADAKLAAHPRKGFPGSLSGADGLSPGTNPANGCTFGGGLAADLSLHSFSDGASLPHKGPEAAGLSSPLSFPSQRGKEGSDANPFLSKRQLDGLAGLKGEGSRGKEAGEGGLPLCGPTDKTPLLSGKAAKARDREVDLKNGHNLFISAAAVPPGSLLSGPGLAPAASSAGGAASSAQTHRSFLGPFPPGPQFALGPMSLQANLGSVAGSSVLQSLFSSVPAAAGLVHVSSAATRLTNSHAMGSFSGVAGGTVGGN

[3] = target: T2, Histone-lysine N-methyltransferase NSD2 (Homo sapiens, UniProt O96028); assay: Inhibition of full-length NSD2 (unknown origin) using HeLa oligonucleosome as substrate preincubated for 15 mins followed by substrate addition measured after 45 mins in presence of SAM by MTaseGlo assay
T2 sequence (O96028 whole entry): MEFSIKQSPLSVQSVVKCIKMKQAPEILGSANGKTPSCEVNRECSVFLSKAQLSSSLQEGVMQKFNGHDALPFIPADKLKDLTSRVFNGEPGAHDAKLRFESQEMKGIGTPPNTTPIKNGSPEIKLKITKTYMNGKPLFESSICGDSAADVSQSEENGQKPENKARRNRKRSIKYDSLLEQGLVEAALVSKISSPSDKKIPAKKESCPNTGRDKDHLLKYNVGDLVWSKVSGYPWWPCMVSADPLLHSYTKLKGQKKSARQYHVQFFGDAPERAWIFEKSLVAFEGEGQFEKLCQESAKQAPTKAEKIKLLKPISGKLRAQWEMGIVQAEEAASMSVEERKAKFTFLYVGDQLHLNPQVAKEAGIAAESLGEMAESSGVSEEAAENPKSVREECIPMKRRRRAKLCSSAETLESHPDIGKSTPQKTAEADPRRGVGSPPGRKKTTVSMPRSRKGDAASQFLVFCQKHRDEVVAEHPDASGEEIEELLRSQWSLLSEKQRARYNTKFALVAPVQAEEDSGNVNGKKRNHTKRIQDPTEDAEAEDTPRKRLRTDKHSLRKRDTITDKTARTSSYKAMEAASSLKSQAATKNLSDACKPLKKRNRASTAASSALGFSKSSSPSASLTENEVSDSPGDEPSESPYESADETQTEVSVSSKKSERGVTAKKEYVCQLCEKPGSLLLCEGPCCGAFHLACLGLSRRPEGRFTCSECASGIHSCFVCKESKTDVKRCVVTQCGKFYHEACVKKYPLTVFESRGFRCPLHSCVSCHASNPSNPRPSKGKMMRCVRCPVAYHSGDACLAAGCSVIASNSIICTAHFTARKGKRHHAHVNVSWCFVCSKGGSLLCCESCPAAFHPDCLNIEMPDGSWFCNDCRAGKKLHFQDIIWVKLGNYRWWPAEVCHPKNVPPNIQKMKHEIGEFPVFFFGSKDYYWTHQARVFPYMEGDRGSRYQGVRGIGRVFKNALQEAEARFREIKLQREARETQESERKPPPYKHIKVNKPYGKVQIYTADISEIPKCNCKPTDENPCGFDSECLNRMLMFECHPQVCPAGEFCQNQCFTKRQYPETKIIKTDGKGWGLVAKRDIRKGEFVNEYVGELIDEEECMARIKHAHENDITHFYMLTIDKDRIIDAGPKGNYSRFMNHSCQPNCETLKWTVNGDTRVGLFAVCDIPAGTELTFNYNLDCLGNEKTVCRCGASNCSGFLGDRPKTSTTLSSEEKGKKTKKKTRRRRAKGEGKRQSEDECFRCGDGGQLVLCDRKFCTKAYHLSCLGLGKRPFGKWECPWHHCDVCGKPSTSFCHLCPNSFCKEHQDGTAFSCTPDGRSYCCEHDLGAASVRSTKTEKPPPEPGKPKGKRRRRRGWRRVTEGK

Which results are given for `N#Cc1c(N)[nH]c2ccc(Oc3ccc(NC(=O)[C@H](N)CO)cc3)cc12`?
IC50 [1]: 5 µM; IC50 [2]: > 100 µM; IC50 [3]: 9.1 µM

Which results are given for `CCn1c(N)c(C#N)c2cc(Oc3ccc(NC(=O)CN)cc3)ccc21`?
IC50 [1]: 1.8 µM; IC50 [2]: 99 µM; IC50 [3]: 12 µM

What does the source list for `Cn1c(N)c(C#N)c2cc(Oc3ccc(NC(=O)CN)cc3)ccc21`?
IC50 [1]: 3.3 µM; IC50 [2]: > 100 µM; IC50 [3]: 47 µM

How did the IC50 [1] turn out when `N#Cc1c(N)[nH]c2ccc(Oc3ccc(NC(=O)[C@@H](N)CO)cc3)cc12` was run?
The IC50 was 3 µM.

And the IC50 [2]?
The IC50 was greater than 100 µM.

What about the IC50 [3] of the same molecule?
Its IC50 is 11 µM.

With `CN(C)C(=O)Cn1c(N)c(C#N)c2cc(Oc3ccc(NC(=O)CN)cc3)ccc21` as the molecule, how does the IC50 [1] read?
The IC50 was 8.3 µM.

With `CCn1cc(C#N)c2cc(Oc3ccc(NC(=O)CN)cc3)ccc21` as the molecule, how does the IC50 [1] read?
Its IC50 is greater than 100 µM.

How did the IC50 [1] turn out when `N#Cc1c(N)n(CC(N)=O)c2ccc(Oc3ccc(NC(=O)CN)cc3)cc12` was run?
The IC50 was 20 µM.

`N#Cc1c(N)[nH]c2ccc(OCc3ccccc3)cc12` was tested. Which IC50 [1] did it give?
The IC50 was 3.6 µM.

What about the IC50 [2] of the same molecule?
The IC50 was greater than 100 µM.

What about the IC50 [3] of the same molecule?
Its IC50 is 49 µM.

With `Cn1c(N)c(C#N)c2cc(OCc3cccc(N)c3)ccc21` as the molecule, how does the IC50 [1] read?
Its IC50 is 1.4 µM.

What about the IC50 [2] of the same molecule?
The IC50 was greater than 100 µM.

And the IC50 [3]?
The IC50 was greater than 100 µM.

Which results are given for `Cn1c(N)c(C#N)c2cc(OCc3ccccc3)ccc21`?
IC50 [1]: 13.6 µM; IC50 [2]: > 100 µM; IC50 [3]: > 100 µM

`Cn1c(N)c(C#N)c2cc(OCc3cccc(NC(=O)C(N)CO)c3)ccc21` (centres undefined) was tested. Which IC50 [1] did it give?
Its IC50 is 2.9 µM.

Which results are given for `N#Cc1c(N)n(CC2CC2)c2ccc(Oc3ccc(NC(=O)CN)cc3)cc12`?
IC50 [1]: 1.5 µM; IC50 [2]: 96 µM; IC50 [3]: 5.8 µM

How did the IC50 [1] turn out when `CC(C)(C)C(=O)Nc1[nH]c2ccc(OCc3ccccc3)cc2c1C#N` was run?
The IC50 was greater than 100 µM.
